The subject of the experiment is P388 leukemia ip, CD2F1 mice, survival T/C. Description: NCI In Vivo Anticancer Drug Screen. Data for tumor model P388 Leukemia (intraperitoneal) in CD2F1 (CDF1) mice. Conditions: endpoint: median survival time, higher = longer survival. An outline of the steps:
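Mice carrying the transplanted tumor received test compound or vehicle. Survival was recorded in each group, and the value is the treated-group measurement divided by that of the vehicle-treated control group.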

[1] abbreviates: dose: 100.0 mg/kg/injection, schedule: Q01DX009 (ip), vehicle: saline with Tween-80.
[2] abbreviates: dose: 200.0 mg/kg/injection, schedule: Q01DX009 (ip), vehicle: saline with Tween-80.
The mark [3] stands for this setting: dose: 50.0 mg/kg/injection, schedule: Q01DX009 (ip), vehicle: Klucel (hydroxypropylcellulose) (HPC).
Setting [4] is: dose: 100.0 mg/kg/injection, schedule: Q01DX009 (ip), vehicle: Klucel (hydroxypropylcellulose) (HPC).
Where [5] appears, read: dose: 200.0 mg/kg/injection, schedule: Q01DX009 (ip), vehicle: Klucel (hydroxypropylcellulose) (HPC).
[6] abbreviates: dose: 100.0 mg/kg/injection, schedule: Q04DX002 (ip), vehicle: saline with Tween-80.
Setting [7] is: dose: 100.0 mg/kg/injection, schedule: Q04DX003 (ip), vehicle: saline.
Where [8] appears, read: dose: 200.0 mg/kg/injection, schedule: Q04DX003 (ip), vehicle: saline.
[9] abbreviates: dose: 50.0 mg/kg/injection, schedule: Q01DX009 (ip), vehicle: saline with Tween-80.
Setting [10] is: dose: 50.0 mg/kg/injection, schedule: Q01DX005 (ip), vehicle: Klucel (hydroxypropylcellulose) (HPC).
[11] abbreviates: dose: 100.0 mg/kg/injection, schedule: Q01DX005 (ip), vehicle: Klucel (hydroxypropylcellulose) (HPC).
The mark [12] stands for this setting: dose: 200.0 mg/kg/injection, schedule: Q01DX005 (ip), vehicle: Klucel (hydroxypropylcellulose) (HPC).

Several values for one entry are separate records, joined by “and”; a condition that tells them apart may be missing. Equal values may be shown once. Inconclusive results and toxic doses are left out.

With `CC1CCC(n2cnc3c(=S)nc[nH]c32)O1` (configuration not stated), the T/C (dose: 66.0 mg/kg/injection, schedule: Q01DX009 (ip), vehicle: saline with Tween-80) is 104 % of control; the T/C under setting [1] was 113 % of control; the T/C (dose: 100.0 mg/kg/injection, schedule: Q04DX003 (ip), vehicle: saline with Tween-80) was 109 % of control; the T/C (dose: 150.0 mg/kg/injection, schedule: Q01DX009 (ip), vehicle: saline with Tween-80) was 90 % of control; the T/C under setting [2] was 100 % of control; the T/C (dose: 200.0 mg/kg/injection, schedule: Q04DX003 (ip), vehicle: saline with Tween-80) is 118 % of control. In addition, for the setting “dose: 400.0 mg/kg/injection, schedule: Q04DX003 (ip), vehicle: saline with Tween-80”, the T/C is 118 % of control.
For `COc1cc(/C=C/c2cccs2)oc(=O)c1`, the T/C is 103 % of control under setting [3], 103 % of control under setting [4] and 103 % of control under setting [5].
`O=c1[nH]cc(Br)c2ccccc12`: the T/C by setting is: (dose: 25.0 mg/kg/injection, schedule: Q04DX002 (ip), vehicle: saline with Tween-80) 92 % of control; (dose: 50.0 mg/kg/injection, schedule: Q04DX002 (ip), vehicle: saline with Tween-80) 93 % of control; under setting [6], 96 % of control.
`C1CC2CC3CCCCN3COC2C1` (configuration not stated): the T/C is, setting by setting: under setting [7], 102 % of control; under setting [8], 118 % of control.
In the case of `CCCCS(=O)CC(CO)NC(=O)/C=C/c1c(C)[nH]c(=O)[nH]c1=O` (configuration not stated), the T/C (dose: 0.08 mg/kg/injection, schedule: Q01DX009 (ip), vehicle: Klucel (hydroxypropylcellulose) (HPC)) was 89 % of control; the T/C (dose: 0.15 mg/kg/injection, schedule: Q01DX009 (ip), vehicle: Klucel (hydroxypropylcellulose) (HPC)) was 86 % of control; the T/C (dose: 0.3 mg/kg/injection, schedule: Q01DX009 (ip), vehicle: Klucel (hydroxypropylcellulose) (HPC)) was 103 % of control; the T/C (dose: 0.6 mg/kg/injection, schedule: Q01DX009 (ip), vehicle: Klucel (hydroxypropylcellulose) (HPC)) was 112 % of control; the T/C (dose: 0.6 mg/kg/injection, schedule: Q01DX009 (ip), vehicle: water) was 122 % of control; the T/C (dose: 4.8 mg/kg/injection, schedule: Q01DX009 (ip), vehicle: water) was 153 % of control. Moreover, the T/C (dose: 5.0 mg/kg/injection, schedule: Q01DX009 (ip), vehicle: water) is 161 % of control.
`FC(F)Oc1ccccc1`: the T/C (dose: 50.0 mg/kg/injection, schedule: Q01DX009 (ip), vehicle: acetone) was 105 % of control; the T/C under setting [9] was 100 % of control and 101 % of control; the T/C (dose: 100.0 mg/kg/injection, schedule: Q01DX009 (ip), vehicle: acetone) is 113 % of control; the T/C under setting [1] was 100 % of control and 110 % of control; the T/C (dose: 200.0 mg/kg/injection, schedule: Q01DX009 (ip), vehicle: acetone) is 110 % of control; the T/C under setting [2] is 114 % of control.
With `O=CNC(Cc1ccccc1)c1ccc(OCc2ccccc2)cc1` (configuration not stated), the T/C is, setting by setting: under setting [10], 98 % of control; under setting [11], 92 % of control; under setting [12], 87 % of control.
Consider `NC(CCC(=O)OCc1ccccc1)C(=O)OCc1ccccc1` (configuration not stated), for which the T/C was 100 % of control (dose: 50.0 mg/kg/injection, schedule: Q04DX003 (ip), vehicle: saline); 104 % of control under setting [7]; 100 % of control under setting [8].
With `NC1=NC(=S)C2N=C(N=Nc3ccc(C(=O)NC(CCC(=O)O)C(=O)O)cc3)N=C2N1` (configuration not stated), the T/C reads like this: (dose: 0.19 mg/kg/injection, schedule: Q01DX009 (ip), vehicle: Klucel (hydroxypropylcellulose) (HPC)) 108 % of control and 120 % of control; (dose: 3.0 mg/kg/injection, schedule: Q01DX009 (ip), vehicle: Klucel (hydroxypropylcellulose) (HPC)) 156 % of control.
As for `CC(C(=O)c1ccc(Cl)cc1)C1=NC2NN(c3ccccc3)C(=O)C2=C1C(C)C(=O)c1ccc(Cl)cc1` (configuration not stated), the T/C runs as follows: (dose: 60.0 mg/kg/injection, schedule: Q01DX005 (ip), vehicle: saline with Tween-80) 99 % of control; (dose: 120.0 mg/kg/injection, schedule: Q01DX005 (ip), vehicle: saline with Tween-80) 101 % of control; (dose: 240.0 mg/kg/injection, schedule: Q01DX005 (ip), vehicle: saline with Tween-80) 100 % of control.
`C1CC[N-]CC1.C1CC[N-]CC1.C1CC[N-]CC1.C1CC[N-]CC1.N#C[S-].N#C[S-].[Ni]`: the T/C runs as follows: (dose: 5.0 mg/kg/injection, schedule: Q04DX003 (ip), vehicle: saline with Tween-80) 100 % of control; (dose: 10.0 mg/kg/injection, schedule: Q04DX003 (ip), vehicle: saline with Tween-80) 100 % of control.
For `BrC(Br)(c1ccccc1)C1OCCO1`, the T/C by setting is: under setting [9], 109 % of control; under setting [1], 109 % of control; under setting [2], 113 % of control.
Regarding `O=C1CCSC(=O)N1c1ccc(F)cc1`, the T/C was 100 % of control under setting [6]; 105 % of control (dose: 200.0 mg/kg/injection, schedule: Q04DX002 (ip), vehicle: saline with Tween-80); 99 % of control (dose: 400.0 mg/kg/injection, schedule: Q04DX002 (ip), vehicle: saline with Tween-80).
For the molecule `CC1(C)CC(=O)C(C(c2ccc3c(c2)OCO3)C2C(=O)CC(C)(C)CC2=O)C(=O)C1`, the T/C is 91 % of control under setting [10], 101 % of control under setting [11] and 104 % of control under setting [12].
As to `CCCCCCCCN=Cc1c(O)c(O)c(C(C)C)c2cc(C)c(-c3c(C)cc4c(C(C)C)c(O)c(O)c(C=NCCCCCCCC)c4c3O)c(O)c12`, the T/C was 95 % of control (dose: 25.0 mg/kg/injection, schedule: Q01DX005 (ip), vehicle: Klucel (hydroxypropylcellulose) (HPC)); 98 % of control under setting [10]; 98 % of control under setting [11]; 93 % of control under setting [12].
In the case of `O=C1Oc2ccccc2OC1c1ccccc1` (configuration not stated), the T/C under setting [3] was 102 % of control, the T/C under setting [4] is 106 % of control and the T/C under setting [5] was 97 % of control.
Turning to `CC(=O)OC1CCC2CC3(CCC1(C)C2=O)OCCO3` (configuration not stated), the T/C is, setting by setting: (dose: 100.0 mg/kg/injection, schedule: Q04DX003 (ip), vehicle: saline + Tween-80 + alcohol) 100 % of control; (dose: 200.0 mg/kg/injection, schedule: Q04DX003 (ip), vehicle: saline + Tween-80 + alcohol) 99 % of control; (dose: 400.0 mg/kg/injection, schedule: Q04DX003 (ip), vehicle: saline + Tween-80 + alcohol) 103 % of control.
Regarding `COc1cc(O)c2c(=O)c3c(O)c(OC4OC(COC5OC(C)C(OC(C)=O)C(O)C5O)C(O)C(O)C4O)ccc3oc2c1` (configuration not stated), the T/C was 100 % of control (dose: 1.5 mg/kg/injection, schedule: Q01DX009 (ip), vehicle: saline); 100 % of control (dose: 3.0 mg/kg/injection, schedule: Q01DX009 (ip), vehicle: saline); 107 % of control (dose: 6.0 mg/kg/injection, schedule: Q01DX009 (ip), vehicle: saline); 103 % of control (dose: 12.0 mg/kg/injection, schedule: Q01DX009 (ip), vehicle: saline).
For the molecule `O=[N+]([O-])c1ccc(S(=O)(=O)c2ccc([N+](=O)[O-])cc2)cc1`, the T/C reads like this: (dose: 6.25 mg/kg/injection, schedule: Q04DX003 (ip), vehicle: suspension in saline) 100 % of control; (dose: 12.5 mg/kg/injection, schedule: Q04DX003 (ip), vehicle: suspension in saline) 100 % of control; (dose: 25.0 mg/kg/injection, schedule: Q04DX003 (ip), vehicle: suspension in saline) 108 % of control; (dose: 50.0 mg/kg/injection, schedule: Q04DX003 (ip), vehicle: suspension in saline) 106 % of control.
Consider `COCCCNP(=S)(N1CC1)N1CC1`, for which the T/C by setting is: (dose: 3.0 mg/kg/injection, schedule: Q04DX003 (ip), vehicle: saline) 110 % of control; (dose: 6.0 mg/kg/injection, schedule: Q04DX003 (ip), vehicle: saline) 115 % of control; (dose: 12.5 mg/kg/injection, schedule: Q01DX009 (ip), vehicle: saline) 170 % of control; (dose: 25.0 mg/kg/injection, schedule: Q04DX003 (ip), vehicle: saline with Tween-80) 186 % of control.

For the origin of these results see PubChem BioAssay AID330 (DTP/NCI, 2004).
